From patent US10052320B2, “Substituted quinoxalines as FGFR kinase inhibitors” (ASTEX THERAPEUTICS LIMITED, priority 2011, dated 2018)
Read-outs that look alike come from different tables or passages of the source.

What was measured:
FGFR4 (h) = FGFR4 (h) (Homo sapiens, UniProt P22455); test: FGFR4 (enzymatic assay), TR-FRET; type: biochemical; conditions: read-out: FGFR 4 pIC50 (converted)
Method: In a final reaction volume of 30 μL, FGFR4 (h) (60 ng/ml) was incubated with 50 mM HEPES pH 7.5, 6 mM MnCl2, 1 mM DTT, 0.1 mM Na3VO4, 0.01% Triton-X-100, 500 nM Btn-Flt3 and 5 μM ATP in the presence of compound (1% DMSO final). […] Time-Resolved Fluorescence Resonance Energy Transfer (TR-FRET) signal (ex340 nm. Em 620 nm, em 655 nm) was measured afterwards and results are expressed in RFU (Relative Fluorescence Units).

[1] = test system: Ba/F3-FGFR3-transfected cells in the presence of 10 ng/ml murine IL3; test: Ba/F3-FGFR3 (plus IL3) cellular proliferation counterscreen, Alamar Blue; type: cell-based; conditions: Mus musculus
In short: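 Ba/F3 cells transfected with FGFR3 were exposed to compound in RPMI-1640 with 10% FBS for 24 h at 37 °C, 5% CO2. Alamar Blue (resazurin) was then added for 4 h, and fluorescence was read at ex 540/em 590 nm.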

[2] = biological target: Ba/F3-KDR-transfected cells (Homo sapiens, UniProt P35968); test: Ba/F3-KDR (minus IL3) cellular proliferation assay, Alamar Blue; type: cell-based
Sequence of Ba/F3-KDR-transfected cells (P35968 whole entry, change not shown): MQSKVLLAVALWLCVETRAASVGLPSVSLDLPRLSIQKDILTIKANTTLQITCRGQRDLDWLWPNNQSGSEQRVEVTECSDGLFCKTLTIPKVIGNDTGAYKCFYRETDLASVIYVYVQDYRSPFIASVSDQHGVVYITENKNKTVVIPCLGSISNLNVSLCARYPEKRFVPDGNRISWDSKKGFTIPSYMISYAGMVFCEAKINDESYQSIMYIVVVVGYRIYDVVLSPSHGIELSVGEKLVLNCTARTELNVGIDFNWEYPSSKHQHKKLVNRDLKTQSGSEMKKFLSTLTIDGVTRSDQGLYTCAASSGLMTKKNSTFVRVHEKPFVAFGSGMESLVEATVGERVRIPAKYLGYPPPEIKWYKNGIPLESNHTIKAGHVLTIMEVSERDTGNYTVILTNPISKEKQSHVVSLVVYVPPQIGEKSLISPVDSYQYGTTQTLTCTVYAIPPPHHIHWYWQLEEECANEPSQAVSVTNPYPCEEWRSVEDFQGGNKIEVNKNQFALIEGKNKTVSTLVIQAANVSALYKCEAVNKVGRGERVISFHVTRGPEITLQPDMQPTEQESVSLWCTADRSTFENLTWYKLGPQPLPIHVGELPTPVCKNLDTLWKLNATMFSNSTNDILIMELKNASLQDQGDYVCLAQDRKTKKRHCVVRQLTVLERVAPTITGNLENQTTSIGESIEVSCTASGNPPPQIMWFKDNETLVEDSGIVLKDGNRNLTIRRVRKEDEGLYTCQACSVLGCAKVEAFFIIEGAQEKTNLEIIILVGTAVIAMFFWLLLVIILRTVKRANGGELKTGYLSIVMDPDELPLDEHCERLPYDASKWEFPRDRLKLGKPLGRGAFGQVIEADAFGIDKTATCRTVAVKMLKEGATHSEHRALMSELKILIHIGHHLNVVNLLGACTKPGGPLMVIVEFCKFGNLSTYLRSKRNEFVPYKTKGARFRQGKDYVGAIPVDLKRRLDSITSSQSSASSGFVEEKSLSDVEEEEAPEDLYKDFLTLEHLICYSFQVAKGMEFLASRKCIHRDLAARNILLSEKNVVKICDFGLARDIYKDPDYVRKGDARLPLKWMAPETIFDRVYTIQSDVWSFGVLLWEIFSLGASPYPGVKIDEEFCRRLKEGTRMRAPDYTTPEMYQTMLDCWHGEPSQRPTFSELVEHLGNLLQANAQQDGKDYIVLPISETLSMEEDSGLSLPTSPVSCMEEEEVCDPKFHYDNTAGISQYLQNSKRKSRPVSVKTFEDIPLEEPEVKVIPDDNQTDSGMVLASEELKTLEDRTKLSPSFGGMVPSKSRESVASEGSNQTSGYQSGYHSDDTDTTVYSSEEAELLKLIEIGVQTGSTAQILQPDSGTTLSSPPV
In short: (§1)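 Ba/F3-KDR cells in phenol red free RPMI-1640 with 10% FBS were exposed to compound for 24 h at 37 °C, 5% CO2. Alamar Blue (resazurin) was then added for 4 h and fluorescence read at ex 540/em 590 nm. The counterscreen ran identically with 10 ng/ml murine IL3.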

[3] = test system: Ba/F3-KDR-transfected cells in the presence of 10 ng/ml murine IL3; test: Ba/F3-KDR (plus IL3) cellular proliferation counterscreen, Alamar Blue; type: cell-based; conditions: Mus musculus
In short: as §1

[4] = biological target: Ba/F3-FGFR4-transfected cells (Homo sapiens, UniProt P22455); test: Ba/F3-FGFR4 cellular proliferation assay, Alamar Blue; type: cell-based
Sequence of Ba/F3-FGFR4-transfected cells (P22455 whole entry, change not shown): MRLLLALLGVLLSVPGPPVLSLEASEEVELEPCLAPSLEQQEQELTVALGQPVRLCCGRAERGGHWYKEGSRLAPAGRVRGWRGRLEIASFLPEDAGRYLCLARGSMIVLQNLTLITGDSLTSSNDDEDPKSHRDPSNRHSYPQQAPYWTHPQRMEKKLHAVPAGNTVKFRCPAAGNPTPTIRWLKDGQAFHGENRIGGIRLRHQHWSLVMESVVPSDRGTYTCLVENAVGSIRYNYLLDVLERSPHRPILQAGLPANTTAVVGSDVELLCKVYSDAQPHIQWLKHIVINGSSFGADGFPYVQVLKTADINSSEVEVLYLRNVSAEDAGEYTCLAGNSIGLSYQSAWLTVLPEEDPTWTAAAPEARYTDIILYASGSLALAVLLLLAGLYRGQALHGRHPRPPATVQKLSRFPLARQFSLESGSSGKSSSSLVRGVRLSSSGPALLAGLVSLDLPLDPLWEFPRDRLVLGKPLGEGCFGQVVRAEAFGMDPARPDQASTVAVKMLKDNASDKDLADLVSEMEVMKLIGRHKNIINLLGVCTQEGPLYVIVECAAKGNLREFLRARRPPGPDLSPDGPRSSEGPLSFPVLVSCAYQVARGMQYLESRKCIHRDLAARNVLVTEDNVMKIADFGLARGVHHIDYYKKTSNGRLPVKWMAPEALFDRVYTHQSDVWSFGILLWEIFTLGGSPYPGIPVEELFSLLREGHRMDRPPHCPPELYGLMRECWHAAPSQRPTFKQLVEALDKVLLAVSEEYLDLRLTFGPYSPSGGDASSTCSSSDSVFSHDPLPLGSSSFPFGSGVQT
In short: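 Ba/F3 cells transfected with FGFR4, 20000 cells/well in phenol red-free RPMI-1640 with 10% FBS, were exposed to compound for 24 h at 37° C, 5% CO2. Alamar Blue (resazurin) was then added for 4 h, and fluorescence was read at ex 540/em 590 nm.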

[5] = test system: Ba/F3-Flt3-transfected cells in the presence of 10 ng/ml murine IL3; test: Ba/F3-Flt3 (plus IL3) cellular proliferation counterscreen, Alamar Blue; type: cell-based; conditions: Mus musculus, read-out: BAF3-FLT3 (PLUS IL3) 96 well pIC50 (converted)
[6] = plus 10 ng/ml murine IL3, 384 well, read-out: BAF3-FGFR 3 (PLUS IL3) 384 well pIC50 (converted)
[7] = plus IL3, 96 well, read-out: BAF3-FGFR 3 (PLUS IL3) 96 well pIC50 (converted)
[8] = plus 10 ng/ml murine IL3, read-out: BAF3-KDR (PLUS IL3) 384 well pIC50 (converted)

Sequence of FGFR4 (h) (P22455 22-802): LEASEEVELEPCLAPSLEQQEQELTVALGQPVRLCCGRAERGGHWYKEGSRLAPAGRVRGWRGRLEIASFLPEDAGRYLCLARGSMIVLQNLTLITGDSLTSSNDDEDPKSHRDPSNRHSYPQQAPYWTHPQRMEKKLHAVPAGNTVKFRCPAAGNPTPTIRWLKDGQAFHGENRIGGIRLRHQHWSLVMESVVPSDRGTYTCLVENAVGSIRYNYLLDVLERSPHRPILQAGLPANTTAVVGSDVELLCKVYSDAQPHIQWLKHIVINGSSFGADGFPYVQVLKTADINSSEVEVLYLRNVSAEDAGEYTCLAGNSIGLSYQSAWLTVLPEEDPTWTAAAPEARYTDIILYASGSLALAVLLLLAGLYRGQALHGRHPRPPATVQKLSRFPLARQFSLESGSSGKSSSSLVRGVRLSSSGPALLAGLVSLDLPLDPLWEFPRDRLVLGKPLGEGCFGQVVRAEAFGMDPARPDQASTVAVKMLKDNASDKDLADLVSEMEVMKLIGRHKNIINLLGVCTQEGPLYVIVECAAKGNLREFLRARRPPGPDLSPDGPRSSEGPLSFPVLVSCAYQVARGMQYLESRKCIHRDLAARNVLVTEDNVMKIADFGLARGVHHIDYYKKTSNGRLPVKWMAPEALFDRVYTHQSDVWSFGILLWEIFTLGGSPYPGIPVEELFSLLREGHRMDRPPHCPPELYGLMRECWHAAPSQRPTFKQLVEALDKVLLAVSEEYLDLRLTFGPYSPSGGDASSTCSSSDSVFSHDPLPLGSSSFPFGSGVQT

Row | SMILES | IC50 (FGFR4 (h)) | BAF3-KDR (MIN IL3) 384 well pIC50 ([2]; minus IL3) | BAF3-FGFR4 pIC50 [4] | BAF3-KDR (MIN IL3) 384 well pIC50 ([2]; minus IL3, 384 well) | BAF3-FGFR4 pIC50 ([4]; 384 well) | IC50 [1, 6] | IC50 [1, 7] | IC50 [3, 8] | IC50 ([5]; plus 10 ng/ml murine IL3) | IC50 ([1]; plus IL3, 384 well, read-out: BAF3-FGFR 3 (PLUS IL3) 384 well pIC50 (converted)) | IC50 ([3]; read-out: BAF3-KDR (PLUS IL3) 384 well pIC50, plus IL3, 384 well, read-out: BAF3-KDR (PLUS IL3) 284 well pIC50 (converted)) | IC50 ([5]; plus IL3, 96 well)
1 | COc1cc(OC)cc(N(CC2CC2)c2ccc3ncc(NC(=O)c4ccc(F)cc4)nc3c2)c1 [Compound 28] | > 10 µM | <5 | <5 |  |  | > 10 µM | > 10 µM | > 10 µM | > 10 µM |  |  | 
2 | COc1cc(OC)cc(N(CC2CC2)c2ccc3ncc(-c4c[nH]cn4)nc3c2)c1 [Compound 39] | 0.145 µM | <5 | <5 |  |  | > 10 µM | > 10 µM | > 10 µM | > 10 µM |  |  | 
3 | COc1cc(OC)cc(N(CC2CC2)c2ccc3ncc(N4CCOCC4)nc3c2)c1 [Compound 63] | 2.29 µM |  |  | <5 | <5 |  | > 10 µM |  |  | > 10 µM | > 10 µM | > 10 µM

Continued, in another order:

Row | IC50 (FGFR4 (h)) | BAF3-KDR (MIN IL3) 384 well pIC50 ([2]; minus IL3) | BAF3-FGFR4 pIC50 [4] | BAF3-KDR (MIN IL3) 384 well pIC50 ([2]; minus IL3, 384 well) | BAF3-FGFR4 pIC50 ([4]; 384 well) | SMILES | IC50 [1, 6] | IC50 [1, 7] | IC50 [3, 8] | IC50 ([5]; plus 10 ng/ml murine IL3) | IC50 ([1]; plus IL3, 384 well, read-out: BAF3-FGFR 3 (PLUS IL3) 384 well pIC50 (converted)) | IC50 ([3]; read-out: BAF3-KDR (PLUS IL3) 384 well pIC50, plus IL3, 384 well, read-out: BAF3-KDR (PLUS IL3) 284 well pIC50 (converted)) | IC50 ([5]; plus IL3, 96 well)
4 | > 10 µM |  |  |  |  | COc1cc(OC)cc(N(CC2CC2)c2ccc3ncc(-c4ccnc(N5CCOCC5)c4)nc3c2)c1 [Compound 90] |  | > 10 µM |  |  |  |  | > 10 µM
5 | > 10 µM | <5 | <5 |  |  | COc1cc(OC)cc(N(CC2CC2)c2ccc3ncc(C(=O)N4CCC4)nc3c2)c1 [Compound 93] |  |  |  | > 10 µM |  |  | 
6 | > 10 µM | <5 | <5 |  |  | COc1cc(OC)cc(N(CC2CC2)c2ccc3ncc(-n4cccn4)nc3c2)c1 [Compound 95] |  |  |  | > 10 µM |  |  | 
